# Measurements: ChEMBL document CHEMBL5500393, “Discovery and Optimization of Novel SaFabI Inhibitors as Specific Therapeutic Agents for MRSA Infection” (J Med Chem, 2024)
# Legend:
# Staphylococcus aureus [1] = test: Antimicrobial activity against […] Staphylococcus aureus ATCC33591 measured after 24 hrs by CLSI protocol based microdilution method; type: functional
# Enterococcus faecalis = test: Antimicrobial activity against Enterococcus faecalis ATCC29212 measured after 24 hrs by CLSI protocol based microdilution method; type: functional
# Staphylococcus aureus [2] = test: Antimicrobial activity against Staphylococcus aureus measured after 24 hrs by CLSI protocol based microdilution method; type: functional
# Staphylococcus aureus [3] = test: Antimicrobial activity against methicillin-susceptible Staphylococcus aureus ATCC29213 measured after 24 hrs by CLSI protocol based microdilution method; type: functional
# HepG2 [4] = test: Cytotoxicity against human HepG2 cells assessed as survival rate at 800 uM measured after 48 hrs by CCK-8 method relative to control; type: functional; conditions: read-out: Survival
# Staphylococcus aureus [5] = test: Antimicrobial activity against […] Staphylococcus aureus USA300 measured after 24 hrs by CLSI protocol based microdilution method; type: functional
# Staphylococcus aureus [6] = test: Antimicrobial activity against […] Staphylococcus aureus ATCC43300 measured after 24 hrs by CLSI protocol based microdilution method; type: functional
# [7] = Inhibition of N-terminal his 6 tagged Acinetobacter baumannii Fabi (1 to 804 residues) expressed in Escherichia coli BL21 incubated for 30 mins in presence of NADH by fluorescence based microplate reader analysis
# [8] = biological target: T1, Enoyl-[acyl-carrier-protein] reductase [NADPH] FabI (Staphylococcus aureus) (UniProt Q6GI75); test: Inhibition of N-terminal his 6 tagged Staphylococcus aureus Fabi (1 to […] residues) expressed in Escherichia coli BL21 at 10 uM incubated for 30 mins in presence of NADPH by fluorescence based microplate reader analysis relative to control
# T1 sequence (whole entry): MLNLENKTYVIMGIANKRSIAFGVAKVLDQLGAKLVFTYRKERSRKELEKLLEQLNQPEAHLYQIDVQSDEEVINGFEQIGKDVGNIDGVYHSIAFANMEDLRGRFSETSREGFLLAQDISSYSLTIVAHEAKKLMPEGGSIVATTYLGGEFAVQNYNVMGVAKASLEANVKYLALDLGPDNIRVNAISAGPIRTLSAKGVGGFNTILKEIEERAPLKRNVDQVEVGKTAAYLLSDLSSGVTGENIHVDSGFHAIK
# [9] = biological target: T1, Enoyl-[acyl-carrier-protein] reductase [NADPH] FabI (Staphylococcus aureus); test: Inhibition of N-terminal his 6 tagged Staphylococcus aureus Fabi (1 to […] residues) expressed in Escherichia coli BL21 at 1 uM incubated for 30 mins in presence of NADPH by fluorescence based microplate reader analysis relative to control
# [10] = Cytotoxicity against HEK293 cells assessed as survival rate at 400 uM measured after 48 hrs by CCK-8 method relative to control; type: toxicity, cell-based; conditions: human, read-out: Survival
# [11] = Hemolytic activity in sheep erythrocytes assessed as hemolysis at 64 ug/ml incubated for 1 hr by microplate reader based analysis relative to control; type: toxicity, cell-based, Ovis aries, Erythrocyte; conditions: at 64 µg/mL, read-out: Activity
# [12] = Selectivity index, ratio of HC50 for sheep erythrocytes to MIC for Staphylococcus aureus; type: toxicity; conditions: read-out: Selectivity Index
# Candida albicans = test: Antimicrobial activity against Candida albicans SC5314 measured after 48 hrs by CLSI protocol based microdilution method; type: functional
# [13] = Cytotoxicity against HEK293 cells assessed as survival rate at 800 uM measured after 48 hrs by CCK-8 method relative to control; type: toxicity, cell-based; conditions: human, read-out: Survival
# [14] = Inhibition of N-terminal his 6 tagged Escherichia coli Fabi (1 to 789 residues) expressed in Escherichia coli BL21 incubated for 30 mins in presence of NADH by fluorescence based microplate reader analysis
# Acinetobacter baumannii = test: Antimicrobial activity against Acinetobacter baumannii ATCC19606 measured after 24 hrs by CLSI protocol based microdilution method; type: functional
# Enterococcus faecium = test: Antimicrobial activity against Enterococcus faecium ATCC19434 measured after 24 hrs by CLSI protocol based microdilution method; type: functional
# HepG2 [15] = test: Cytotoxicity against human HepG2 cells assessed as survival rate at 400 uM measured after 48 hrs by CCK-8 method relative to control; type: functional; conditions: read-out: Survival
# [16] = Hemolytic activity in sheep erythrocytes assessed as hemolysis at 128 ug/ml incubated for 1 hr by microplate reader based analysis relative to control; type: toxicity, cell-based, Ovis aries, Erythrocyte; conditions: at 128 µg/mL, read-out: Activity
# [17] = Hemolytic activity in sheep erythrocytes assessed as hemolysis incubated for 1 hr by microplate reader based analysis; type: toxicity, cell-based, Ovis aries, Erythrocyte
# Staphylococcus aureus [18] = test: Antimicrobial activity against methicillin-susceptible Staphylococcus aureus ATCC25923 measured after 24 hrs by CLSI protocol based microdilution method; type: functional
# Pseudomonas aeruginosa = test: Antimicrobial activity against Pseudomonas aeruginosa PAO1 measured after 24 hrs by CLSI protocol based microdilution method; type: functional
# Staphylococcus aureus [19] = test: Antimicrobial activity against […] Staphylococcus aureus NRS271 measured after 24 hrs by CLSI protocol based microdilution method; type: functional
# Escherichia coli = test: Antimicrobial activity against Escherichia coli ATCC25922 measured after 24 hrs by CLSI protocol based microdilution method; type: functional
# [20] = Hemolytic activity in sheep erythrocytes assessed as hemolysis at 256 ug/ml incubated for 1 hr by microplate reader based analysis relative to control; type: toxicity, cell-based, Ovis aries, Erythrocyte; conditions: at 256 µg/mL, read-out: Activity
# [21] = biological target: T2, Enoyl-[acyl-carrier-protein] reductase [NADPH] FabI (Staphylococcus aureus, UniProt Q6GI75); test: Inhibition of N-terminal his 6 tagged Staphylococcus aureus Fabi (1 to […] residues) expressed in Escherichia coli BL21 incubated for 30 mins in presence of NADPH by fluorescence based microplate reader analysis
# T2 sequence (Q6GI75 whole entry): T1 sequence (whole entry)
Compound,MIC (Staphylococcus aureus [1]) [µg/mL],MIC (Enterococcus faecalis) [µg/mL],MIC (Staphylococcus aureus [3]) [µg/mL],MIC (Staphylococcus aureus [5]) [µg/mL],MIC (Staphylococcus aureus [6]) [µg/mL],inhibition [8] [%],inhibition [9] [%],MIC (Candida albicans) [µg/mL],MIC (Acinetobacter baumannii) [µg/mL],MIC (Enterococcus faecium) [µg/mL],MIC (Staphylococcus aureus [18]) [µg/mL],MIC (Pseudomonas aeruginosa) [µg/mL],MIC (Staphylococcus aureus [19]) [µg/mL],MIC (Escherichia coli) [µg/mL],IC50 [21] [nM],other results
Cn1c(C2CC(=O)N(c3cccc(Br)c3Cl)C2)nc2ccccc21 (configuration not stated),2,> 32,2,1,2,97.4,80.3,> 32,> 32,> 32,1,> 32,4,> 32,331,"MIC (Staphylococcus aureus [2]): 1 µg/mL; viability at 800 µM (HepG2 [4]): > 75%; IC50 [7]: 266 nM; viability at 48 h, 400 µM [10]: > 70%; hemolysis at 1 h, 64 ug/ml [11]: 2.8%; selectivity ratio [12]: > 64; viability at 48 h, 800 µM [13]: > 75%; IC50 [14]: 35.9 nM; viability at 400 µM (HepG2 [15]): > 70%; hemolysis at 1 h, 128 ug/ml [16]: 4.7%; HC50 at 1 h [17]: > 256 µg/mL; hemolysis at 1 h, 256 ug/ml [20]: 10.6%"
Cn1c(C2CC(=O)N(c3cccc(Cl)c3Br)C2)nc2ccccc21 (configuration not stated),8,> 32,8,6,16,95.8,46,> 32,> 32,> 32,16,> 32,16,> 32,230,
Cn1c(C2CC(=O)N(c3cccc(Cl)c3F)C2)nc2ccccc21 (configuration not stated),4,> 32,4,8,4,97.9,65.4,> 32,> 32,> 32,4,> 32,8,> 32,579,
Cn1c(C2CC(=O)N(c3cccc(F)c3Br)C2)nc2ccccc21 (configuration not stated),16,> 32,32,32,> 32,83,23.5,> 32,> 32,> 32,> 32,> 32,> 32,> 32,2730,
Cc1cccc(N2CC(c3nc4ccccc4n3C)CC2=O)c1Cl (configuration not stated),8,> 32,8,16,8,95.2,47.3,> 32,> 32,> 32,16,> 32,8,> 32,1180,
Cn1c(C2CC(=O)N(c3cccc(Cl)c3)C2)nc2ccccc21 (configuration not stated),32,> 32,32,32,> 32,69.6,12.8,> 32,> 32,> 32,> 32,> 32,32,> 32,3530,
